US20120165319A1, “INHIBITORS OF INTERLEUKIN-1 BETA CONVERTING ENZYME” (VERTEX PHARMACEUTICALS INCORPORATED, priority 1995, published 2012)
Like-named read-outs stand apart in the source and are kept apart here.

Tests used:
IL-1β, human whole blood = assay: Whole blood assay for IL-1β production; format: cell-based; details: Table 17, read-out: Whole human blood IC50
In short: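 IL-1β was quantified by ELISA in plasma diluted 1:200. The plasma came from EDTA-anticoagulated human whole blood incubated at 30 °C for 16-18 h with LPS (final 5.0 ng/ml) plus a saline serial dilution of compound. Controls were no-LPS, no-inhibitor and highest-vehicle.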

[1] = tested on: IL-1β, human peripheral blood mononuclear cells (PBMC); assay: PBMC cell assay: IL-1β assay with human PBMC or enriched adherent mononuclear cells, LPS-stimulated; format: cell-based; details: Table 17
In short: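 Mature IL-1β is measured by ELISA in supernatants after 16–18 hr at 37 °C, 5% CO2, with LPS (5 ng/ml final) and test compound (0.1% DMSO final). Cells are human PBMC (6×10^6 cells/ml) or plate-adherent mononuclear cells (2.5−3.0×10^5 per well), and the 5–6 compound concentrations span the ICE Ki.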

[2] = tested on: IL-1β production, LPS-challenged mice; assay: In vivo acute assay for efficacy as anti-inflammatory agent: LPS-induced IL-1β production in mice; design: species or system mouse; details: LPS challenged mice, compound PO, 50 mg/kg; for inhibition at 50 mg/kg: Mus musculus, po, read-out: percent inhibition of IL-1β production
Experimental: In Vivo Acute Assay for Efficacy as Anti-Inflammatory Agent
LPS-Induced IL-1β Production.
Efficacy of 214e and 217e was evaluated in CD1 mice (n=6 per condition) challenged with LPS (20 mg/kg IP). […] Blood was collected seven hours after LPS challenge. Serum IL-1β levels were measure by ELISA. […] Similar results were obtained in a second experiment. […] However, a clear dose response was not apparent.
Compounds 214e and 217e (50 mg/kg) were also administered by oral gavage to assess absorption.
The efficacy of analogs of 214e were also evaluated in LPS challenged mice after IP administration (FIG. 9) and PO administration (FIG. 10).
[…] The protocol is described in Example 7.

ICE = target: T1, ICE (Homo sapiens, UniProt P29466); assay: Enzyme assay with UV-visible substrate (visible ICE assay, Succinyl-Tyr-Val-Ala-Asp-pNitroanilide); format: biochemical; details: Table 17
T1 sequence (P29466 120-297 limits assumed): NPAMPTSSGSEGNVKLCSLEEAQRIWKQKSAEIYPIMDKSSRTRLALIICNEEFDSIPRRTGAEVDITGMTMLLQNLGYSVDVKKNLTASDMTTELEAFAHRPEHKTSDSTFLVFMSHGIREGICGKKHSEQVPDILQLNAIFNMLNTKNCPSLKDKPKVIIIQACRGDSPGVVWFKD
T1 sequence (P29466 317-404 limits assumed): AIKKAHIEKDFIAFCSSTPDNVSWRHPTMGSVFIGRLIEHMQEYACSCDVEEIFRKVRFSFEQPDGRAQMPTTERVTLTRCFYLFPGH
In short: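 ICE preincubated with inhibitor in DMSO for 15 min at room temperature, then Suc-Tyr-Val-Ala-Asp-pNA added. pNA release read at 405-603 nm for 20 min at 37 °C, rate from linear fit in mOD/min. Ki and inhibition mode from fits of rates at varying inhibitor concentrations to standard kinetic equations.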

[3] = 0 h, administered 0 h relative to time of LPS challenge
[4] = 2 h, administered −2 h relative to time of LPS challenge

SMILES	IC50 (IL-1β, human whole blood; Homo sapiens)	inhibition at 50 mg/kg [2, 3]	inhibition at 50 mg/kg [2, 4]	also measured
CC(=O)Nc1cccc(C(=O)N[C@H]2CCC(=O)N3CCC[C@@H](C(=O)N[C@H]4CC(=O)OC4OCc4ccccc4)N3C2=O)c1 (mixture of isomers) [Compound 213o, [1S,9S(2RS,3S)]9-[(3-Acetamido)benzamido]-N-(2-benzyloxy-5-oxotetrahydrofuran-3-yl)-6,10-dioxo-1,2,3,4,7,8,9,10-octahydro-6H-pyridazino[1,2-a][1,2]diazepine-1-carboxamide]	–	–	–	IC50 (IL-1β, human whole blood): 3300 nM; IC50 [1]: 5000 nM; percent inhibition of IL-1β production ([2]; administered 0 h relative to time of LPS challenge): 8%; percent inhibition of IL-1β production ([2]; administered −2 h relative to time of LPS challenge): 4%
CC(=O)Nc1ccc(C(=O)N[C@H]2CCC(=O)N3CCC[C@@H](C(=O)N[C@H]4CC(=O)OC4OCc4ccccc4)N3C2=O)cc1Cl (stereo partly drawn) [Compound 213l, [1S,9S(2RS,3S)]9-[(3-Chloro-4-acetamidobenzoyl)amino]-6,10-dioxo-1,2,3,4,7,8,9,10-octahydro-N-(2-Benzyloxy-5-oxotetrahydrofuran-3-yl)-6H -pyridazino[1,2-a][1,2]diazepine-1-carboxamide]	2000 nM	80%	-18%	–
COc1c(Cl)cc(C(=O)N[C@H]2CCC(=O)N3CCC[C@@H](C(=O)N[C@H]4CC(=O)OC4OCc4ccccc4)N3C2=O)cc1Cl (stereo partly drawn) [Compound 213m, [1S,9S(2RS,3S)]9-[(3,5-Dichloro-4-methoxybenzoyl)amino]-6,10-dioxo-1,2,3,4,7,8,9,10-octahydro-N-(2-Benzyloxy-5-oxotetrahydrofuran-3-yl)-6H-pyridazino[1,2-a][1,2]diazepine-1-carboxamide]	2500 nM	42%	26%	–
O=C1C[C@H](NC(=O)[C@@H]2CCCN3C(=O)CCN(NC(=O)c4ccc5c(c4)OCO5)C(=O)N23)C(OCc2ccccc2)O1 (stereo partly drawn) [Compound 264l, [4S(2RS,3S)]N-(2-Benzyloxy-5-oxotetrahydrofuran-3-yl)-6,10-dioxo-7-(3,4-methylenedioxybenzoylamino)-1,2,3,4,7,8,9,10-octahydro-6H-pyridazino[1,2-a][1,2,4]triazepine-4-carboxamide]	3000 nM	23%	0%	–
CCOC1OC(=O)C[C@@H]1NC(=O)[C@@H]1CCCN2C(=O)CCN(NC(=O)c3ccc4c(c3)OCO4)C(=O)N12 (stereo partly drawn) [Compound 528, [4S(2RS,3S)]6,10-Dioxo-N-(2-ethoxy-5-oxotetrahydrofuran-3-yl)-7-(3,4-methylenedioxybenzoylamino)-1,2,3,4,7,8,9,10-octahydro-6H-pyridazino[1,2-a][1,2,4]triazepine-4-carboxamide]	2200 nM	67%	25%	–
CCOC1OC(=O)C[C@@H]1NC(=O)[C@@H]1CCCN2C(=O)CC[C@H](NC(=O)c3ccc(N(C)C)cc3)C(=O)N12 (stereo partly drawn) [Compound 550f, [1S,9S(2RS,3S)]9-[(4-Dimethylaminobenzoyl)amino]-6,10-dioxo-1,2,3,4,7,8,9,10-octahydro-N-(2-ethoxy-5-oxotetrahydrofuran-3-yl)-6H-pyridazino[1,2-a][1,2]diazepine-1-carboxamide]	1100 nM	50%	0%	–
CCOC1OC(=O)C[C@@H]1NC(=O)[C@@H]1CCCN2C(=O)CC[C@H](NC(=O)c3ccc(N)c(Cl)c3)C(=O)N12 (stereo partly drawn) [Compound 550h, [1S,9S(2RS,3S)]9-[(3-Chloro-4-aminobenzoyl)amino]-6,10-dioxo-1,2,3,4,7,8,9,10-octahydro-N-(2-ethoxy-5-oxotetrahydrofuran-3-yl)-6H-pyridazino[1,2-a][1,2]diazepine-1-carboxamide]	1800 nM	73%	55%	–
CCOC1OC(=O)C[C@@H]1NC(=O)[C@@H]1CCCN2C(=O)CC[C@H](NC(=O)c3ccc(OC)cc3)C(=O)N12 (stereo partly drawn) [Compound 550i, [1S,9S(2RS,3S)]9-[(4-Methoxybenzoyl)amino]-6,10-dioxo-1,2,3,4,7,8,9,10-octahydro-N-(2-ethoxy-5-oxotetrahydrofuran-3-yl)-6H-pyridazino[1,2-a][1,2]diazepine-1-carboxamide]	1400 nM	23%	-10%	–
CCOC1OC(=O)C[C@@H]1NC(=O)[C@@H]1CCCN2C(=O)CC[C@H](NC(=O)c3cc(Cl)c(O)c(Cl)c3)C(=O)N12 (stereo partly drawn) [Compound 550k, [1S,9S(2RS,3S)]9-[(3,5-Dichloro-4-hydroxybenzoyl)amino]-6,10-dioxo-1,2,3,4,7,8,9,10-octahydro-N-(2-ethoxy-5-oxotetrahydrofuran-3-yl)-6H-pyridazino[1,2-a][1,2]diazepine-1-carboxamide]	3000 nM	34%	36%	–
CCOC1OC(=O)C[C@@H]1NC(=O)[C@@H]1CCCN2C(=O)CC[C@H](NC(=O)c3ccc(NC(C)=O)c(Cl)c3)C(=O)N12 (stereo partly drawn) [Compound 550l, [1S,9S (2RS,3S)]9-[(3-Chloro-4-acetamidobenzoyl)amino]-6,10-dioxo-1,2,3,4,7,8,9,10-octahydro-N-(2-ethoxy-5-oxotetrahydrofuran-3-yl)-6H-pyridazino[1,2-a][1,2]diazepine-1-carboxamide]	750 nM	38%	9%	–
CCOC1OC(=O)C[C@@H]1NC(=O)[C@@H]1CCCN2C(=O)CC[C@H](NC(=O)c3cc(Cl)c(OC)c(Cl)c3)C(=O)N12 (stereo partly drawn) [Compound 550m, [1S,9S(2RS,3S)]9-[(3,5-Dichloro-4-methoxybenzoyl)amino]-6,10-dioxo-1,2,3,4,7,8,9,10-octahydro-N-(2-ethoxy-5-oxotetrahydrofuran-3-yl)-6H-pyridazino[1,2-a][1,2]diazepine-1-carboxamide]	2000 nM	52%	45%	–
CCOC1OC(=O)C[C@@H]1NC(=O)[C@@H]1CCCN2C(=O)CC[C@H](NC(=O)c3cccc(NC(C)=O)c3)C(=O)N12 (stereo partly drawn) [Compound 550n, [1S,9S (2RS,3S)]9-(3-Acetamido) benzoylamino-6,10-dioxo-N-(2-ethoxy-5-oxo-tetrahydrofuran-3-yl)-1,2,3,4,7,8,9,10-octahydro-6H-pyridazino[1,2-a][1,2]diazepine-1-carboxamide]	< 300 nM	65%	19%	–
CCOC1OC(=O)C[C@@H]1NC(=O)[C@@H]1CCCN2C(=O)CC[C@H](NC(=O)c3ccc(O)cc3)C(=O)N12 (stereo partly drawn) [Compound 550p, [1S,9S(2RS,3S)]6,10-Dioxo-N-(2-ethoxy-5-oxotetrahydrofuran-3-yl)-9-(4-hydroxybenzoyl)amino-1,2,3,4,7,8,9,10-octahydro-6H-pyridazino[1,2-a][1,2]diazepine-1-carboxamide]	2900 nM	60%	30%	–
CCOC(=O)CC(=COC(C)=O)NC(=O)[C@@H]1CCCN2C(=O)CC[C@H](NC(=O)c3ccccc3)C(=O)N12 [Compound 2100j, [3S(1S,9S)]3-(9-Benzoylamino-6,10-dioxo-1,2,3,4,7,8,9,10-octahydro-6H-pyridazino[1,2-a][1,2]diazepine-1-carboxamido)-4-acetoxy-3-butenoic acid ethyl ester]	12000 nM	0%	48%	inhibition at 50 mg/kg ([2]; 1 h, administered +1 h relative to time of LPS challenge): 33%; inhibition at 50 mg/kg ([2]; 1 h, administered −1 h relative to time of LPS challenge): 41%; Ki (ICE): 30000 nM
